{"source": "patent US8993542B2", "about": "“Methods of treating viral infections” (priority 2008, dated 2015)", "key": {"HIV-1IIIB": {"system": "HIV-1IIIB", "assay": "TCID50 determination of drug-treated HIV-1IIIB", "type": "cell-based", "design": "TCID50, XTT Endpoint / TCID50, RT Endpoint / TCID50, P24 Endpoint: unit not given here"}, "[1]": {"assay": "Toxicokinetics and 7-day toxicity after oral administration of CMX157 to rats", "type": "in vivo", "conditions": "for AUC0-24 / Cmax / Tmax / AUC(0-t) / AUC0-∞ / t1/2elim: rat plasma; for AUC(0-t): read-out: AUC0-24"}, "[2]": {"conditions": "virus treated 15 minutes with 0.39 nM drug"}, "[3]": {"conditions": "virus treated 15 minutes with 1.25 nM drug"}, "[4]": {"conditions": "virus treated 15 minutes with 3.9 nM drug"}, "[5]": {"conditions": "virus treated 15 minutes with 12.5 nM drug"}, "[6]": {"conditions": "virus treated 15 minutes with 39.1 nM drug"}, "[7]": {"conditions": "virus treated 15 minutes with 125 nM drug"}, "[8]": {"conditions": "virus treated 2 hours with 125 nM drug"}, "[9]": {"conditions": "virus treated 2 hours with 250 nM drug"}, "[10]": {"conditions": "virus treated 2 hours with 500 nM drug"}, "[11]": {"conditions": "virus treated 2 hours with 1000 nM drug"}}, "note": "Where two headings read alike, the source gives them in different places."}
{"smiles": "CCCCCCCCCCCCCCCCOCCCOP(=O)(O)CO[C@H](C)Cn1cnc2c(N)ncnc21", "note": "[CMX157, Hexadecyloxypropyl-9-R-[2-(Phosphonomethoxy)Propyl]-Adenine]", "values": [{"measurement": "Fold Decrease From VC, P24 Endpoint", "setting": "HIV-1IIIB; [2]", "result": "(1.4) Fold"}, {"measurement": "Fold Decrease From VC, RT Endpoint", "setting": "HIV-1IIIB; [2]", "result": "(1.6) Fold"}, {"measurement": "Fold Decrease From VC, XTT Endpoint", "setting": "HIV-1IIIB; [2]", "result": "(1.4) Fold"}, {"measurement": "TCID50, P24 Endpoint", "setting": "HIV-1IIIB; [2]", "result": 21529}, {"measurement": "TCID50, RT Endpoint", "setting": "HIV-1IIIB; [2]", "result": 102336}, {"measurement": "TCID50, XTT Endpoint", "setting": "HIV-1IIIB; [2]", "result": 12795}, {"measurement": "Fold Decrease From VC, P24 Endpoint", "setting": "HIV-1IIIB; [3]", "result": "(0) Fold"}, {"measurement": "Fold Decrease From VC, RT Endpoint", "setting": "HIV-1IIIB; [3]", "result": "(1.6) Fold"}, {"measurement": "Fold Decrease From VC, XTT Endpoint", "setting": "HIV-1IIIB; [3]", "result": "(2.0) Fold"}, {"measurement": "TCID50, P24 Endpoint", "setting": "HIV-1IIIB; [3]", "result": 30411}, {"measurement": "TCID50, RT Endpoint", "setting": "HIV-1IIIB; [3]", "result": 102336}, {"measurement": "TCID50, XTT Endpoint", "setting": "HIV-1IIIB; [3]", "result": 9058}, {"measurement": "Fold Decrease From VC, P24 Endpoint", "setting": "HIV-1IIIB; [4]", "result": "(2.0) Fold"}, {"measurement": "Fold Decrease From VC, RT Endpoint", "setting": "HIV-1IIIB; [4]", "result": "(1.6) Fold"}, {"measurement": "Fold Decrease From VC, XTT Endpoint", "setting": "HIV-1IIIB; [4]", "result": "(4.0) Fold"}, {"measurement": "TCID50, P24 Endpoint", "setting": "HIV-1IIIB; [4]", "result": 15207}, {"measurement": "TCID50, RT Endpoint", "setting": "HIV-1IIIB; [4]", "result": 102336}, {"measurement": "TCID50, XTT Endpoint", "setting": "HIV-1IIIB; [4]", "result": 4529}, {"measurement": "Fold Decrease From VC, P24 Endpoint", "setting": "HIV-1IIIB; [5]", "result": "(5.6) Fold"}, {"measurement": "Fold Decrease From VC, RT Endpoint", "setting": "HIV-1IIIB; [5]", "result": "(1.6) Fold"}, {"measurement": "Fold Decrease From VC, XTT Endpoint", "setting": "HIV-1IIIB; [5]", "result": "(4.0) Fold"}, {"measurement": "TCID50, P24 Endpoint", "setting": "HIV-1IIIB; [5]", "result": 5383}, {"measurement": "TCID50, RT Endpoint", "setting": "HIV-1IIIB; [5]", "result": 102336}, {"measurement": "TCID50, XTT Endpoint", "setting": "HIV-1IIIB; [5]", "result": 4529}, {"measurement": "Fold Decrease From VC, P24 Endpoint", "setting": "HIV-1IIIB; [6]", "result": "(4.0) Fold"}, {"measurement": "Fold Decrease From VC, RT Endpoint", "setting": "HIV-1IIIB; [6]", "result": "(2.5) Fold"}, {"measurement": "Fold Decrease From VC, XTT Endpoint", "setting": "HIV-1IIIB; [6]", "result": "(3.6) Fold"}, {"measurement": "TCID50, P24 Endpoint", "setting": "HIV-1IIIB; [6]", "result": 7604}, {"measurement": "TCID50, RT Endpoint", "setting": "HIV-1IIIB; [6]", "result": 64570}, {"measurement": "TCID50, XTT Endpoint", "setting": "HIV-1IIIB; [6]", "result": 5082}, {"measurement": "Fold Decrease From VC, P24 Endpoint", "setting": "HIV-1IIIB; [7]", "result": "(4.0) Fold"}, {"measurement": "Fold Decrease From VC, RT Endpoint", "setting": "HIV-1IIIB; [7]", "result": "(2.5) Fold"}, {"measurement": "Fold Decrease From VC, XTT Endpoint", "setting": "HIV-1IIIB; [7]", "result": "(4.5) Fold"}, {"measurement": "TCID50, P24 Endpoint", "setting": "HIV-1IIIB; [7]", "result": 7604}, {"measurement": "TCID50, RT Endpoint", "setting": "HIV-1IIIB; [7]", "result": 64570}, {"measurement": "TCID50, XTT Endpoint", "setting": "HIV-1IIIB; [7]", "result": 4027}, {"measurement": "Fold Decrease From VC, P24 Endpoint", "setting": "HIV-1IIIB; [8]", "result": "(4.0) Fold"}, {"measurement": "Fold Decrease From VC, RT Endpoint", "setting": "HIV-1IIIB; [8]", "result": "(1.6) Fold"}, {"measurement": "Fold Decrease From VC, XTT Endpoint", "setting": "HIV-1IIIB; [8]", "result": "(4.0) Fold"}, {"measurement": "TCID50, P24 Endpoint", "setting": "HIV-1IIIB; [8]", "result": 9058}, {"measurement": "TCID50, RT Endpoint", "setting": "HIV-1IIIB; [8]", "result": 51172}, {"measurement": "TCID50, XTT Endpoint", "setting": "HIV-1IIIB; [8]", "result": 1132}, {"measurement": "Fold Decrease From VC, P24 Endpoint", "setting": "HIV-1IIIB; [9]", "result": "(3.4) Fold"}, {"measurement": "Fold Decrease From VC, RT Endpoint", "setting": "HIV-1IIIB; [9]", "result": "(3.2) Fold"}, {"measurement": "Fold Decrease From VC, XTT Endpoint", "setting": "HIV-1IIIB; [9]", "result": "(4.0) Fold"}, {"measurement": "TCID50, P24 Endpoint", "setting": "HIV-1IIIB; [9]", "result": 10765}, {"measurement": "TCID50, RT Endpoint", "setting": "HIV-1IIIB; [9]", "result": 25588}, {"measurement": "TCID50, XTT Endpoint", "setting": "HIV-1IIIB; [9]", "result": 1132}, {"measurement": "Fold Decrease From VC, P24 Endpoint", "setting": "HIV-1IIIB; [10]", "result": "(4.8) Fold"}, {"measurement": "Fold Decrease From VC, RT Endpoint", "setting": "HIV-1IIIB; [10]", "result": "(2.2) Fold"}, {"measurement": "Fold Decrease From VC, XTT Endpoint", "setting": "HIV-1IIIB; [10]", "result": "(4.0) Fold"}, {"measurement": "TCID50, P24 Endpoint", "setting": "HIV-1IIIB; [10]", "result": 7604}, {"measurement": "TCID50, RT Endpoint", "setting": "HIV-1IIIB; [10]", "result": 36227}, {"measurement": "TCID50, XTT Endpoint", "setting": "HIV-1IIIB; [10]", "result": 1132}, {"measurement": "Fold Decrease From VC, P24 Endpoint", "setting": "HIV-1IIIB; [11]", "result": "(4.8) Fold"}, {"measurement": "Fold Decrease From VC, RT Endpoint", "setting": "HIV-1IIIB; [11]", "result": "(2.2) Fold"}, {"measurement": "Fold Decrease From VC, XTT Endpoint", "setting": "HIV-1IIIB; [11]", "result": "(4.0) Fold"}, {"measurement": "TCID50, P24 Endpoint", "setting": "HIV-1IIIB; [11]", "result": 7604}, {"measurement": "TCID50, RT Endpoint", "setting": "HIV-1IIIB; [11]", "result": 36227}, {"measurement": "TCID50, XTT Endpoint", "setting": "HIV-1IIIB; [11]", "result": 1132}, {"measurement": "AUC0-24", "setting": "[1]; oral CMX157 10 mg/kg, day 1", "result": 441.7, "unit": "ng·h/mL"}, {"measurement": "Cmax", "setting": "[1]; oral CMX157 10 mg/kg, day 1", "result": 84.85, "unit": "ng/mL"}, {"measurement": "Tmax", "setting": "[1]; oral CMX157 10 mg/kg, day 1", "result": 0.5, "unit": "h"}, {"measurement": "Cmax", "setting": "[1]; oral CMX157 10 mg/kg, day 7", "result": 110.90, "unit": "ng/mL"}, {"measurement": "Tmax", "setting": "[1]; oral CMX157 10 mg/kg, day 7", "result": 0.5, "unit": "h"}, {"measurement": "AUC(0-t)", "setting": "[1]; oral CMX157 10 mg/kg, day 7", "result": 435, "unit": "ng·h/mL"}, {"measurement": "AUC0-24", "setting": "[1]; oral CMX157 30 mg/kg, day 1", "result": "1,832.8 ng · h/ml"}, {"measurement": "Cmax", "setting": "[1]; oral CMX157 30 mg/kg, day 1", "result": 379.00, "unit": "ng/mL"}, {"measurement": "Tmax", "setting": "[1]; oral CMX157 30 mg/kg, day 1", "result": 2.0, "unit": "h"}, {"measurement": "Cmax", "setting": "[1]; oral CMX157 30 mg/kg, day 7", "result": 202.50, "unit": "ng/mL"}, {"measurement": "Tmax", "setting": "[1]; oral CMX157 30 mg/kg, day 7", "result": 1.0, "unit": "h"}, {"measurement": "AUC(0-t)", "setting": "[1]; oral CMX157 30 mg/kg, day 7", "result": 1540, "unit": "ng·h/mL"}, {"measurement": "AUC0-24", "setting": "[1]; oral CMX157 100 mg/kg, day 1", "result": "5,408 ng · h/ml"}, {"measurement": "AUC0-∞", "setting": "[1]; oral CMX157 100 mg/kg, day 1", "result": "5,429.8 ng · h/ml"}, {"measurement": "Cmax", "setting": "[1]; oral CMX157 100 mg/kg, day 1", "result": 905.00, "unit": "ng/mL"}, {"measurement": "Tmax", "setting": "[1]; oral CMX157 100 mg/kg, day 1", "result": 2.0, "unit": "h"}, {"measurement": "t1/2elim", "setting": "[1]; oral CMX157 100 mg/kg, day 1", "result": 2.5, "unit": "h"}, {"measurement": "AUC0-∞", "setting": "[1]; oral CMX157 100 mg/kg, day 7", "result": "8,050.6 ng · h/ml"}, {"measurement": "Cmax", "setting": "[1]; oral CMX157 100 mg/kg, day 7", "result": 685.50, "unit": "ng/mL"}, {"measurement": "Tmax", "setting": "[1]; oral CMX157 100 mg/kg, day 7", "result": 2.0, "unit": "h"}, {"measurement": "t1/2elim", "setting": "[1]; oral CMX157 100 mg/kg, day 7", "result": 1.6, "unit": "h"}, {"measurement": "AUC(0-t)", "setting": "[1]; oral CMX157 100 mg/kg, day 7", "result": 8050, "unit": "ng·h/mL"}, {"measurement": "no-observed-adverse-effect level", "setting": "[1]; rats, 7 days, highest dose tested", "result": "up to 100 mg/kg/day"}]}
